From patent publication US12606852B2, “Conversion of lignin-derived monomers to muconate by engineered pseudomonas” (Alliance for Sustainable Energy, LLC, priority 2021, dated 2026)
Values joined by “and” are separate entries in the source; they are usually repeats but may differ in a detail not shown here. Equal entries are not always repeated. Where two headings read alike, the source gives them in different places.

Assays:
[1] = molecular target: T1, Paenibacillus sp. JJ-1b PraI (para-hydroxybenzoate-3-hydroxylase, PHBH), BAH79107, tagless, praI_EC gene SEQ ID NO: 3 (Paenibacillus sp., UniProt C4TP09); test: Steady-state kinetic analysis of PraI (hydroxylation of 4-hydroxybenzoate); type: biochemical; conditions: for kcat (NAD(P)H): air-saturated, 200 μM 4-hydroxybenzoate, pH 8, 25° C.
T1 construct: His-tagged form only for crystallography

[2] = molecular target: Pseudomonas putida KT2440 PobA (para-hydroxybenzoate-3-hydroxylase, PHBH), native, PP_3537, tagless, pobA_EC gene SEQ ID NO: 1 (Pseudomonas putida, UniProt Q88H28); test: Steady-state kinetic analysis of PobA (hydroxylation of 4-hydroxybenzoate); type: biochemical; conditions: for kcat (NAD(P)H): NADPH varied, air-saturated, 200 μM 4-hydroxybenzoate, pH 8, 25° C.
[3] = test system: Pseudomonas aeruginosa PHBH (para-hydroxybenzoate-3-hydroxylase); conditions: reported value, natively produced PHBH, cited from earlier work
[4] = test system: Pseudomonas fluorescens PHBH (para-hydroxybenzoate-3-hydroxylase); conditions: read-out: KM^NADPH; reported value, natively produced PHBH; cited from earlier work

T1 sequence (C4TP09 2-394): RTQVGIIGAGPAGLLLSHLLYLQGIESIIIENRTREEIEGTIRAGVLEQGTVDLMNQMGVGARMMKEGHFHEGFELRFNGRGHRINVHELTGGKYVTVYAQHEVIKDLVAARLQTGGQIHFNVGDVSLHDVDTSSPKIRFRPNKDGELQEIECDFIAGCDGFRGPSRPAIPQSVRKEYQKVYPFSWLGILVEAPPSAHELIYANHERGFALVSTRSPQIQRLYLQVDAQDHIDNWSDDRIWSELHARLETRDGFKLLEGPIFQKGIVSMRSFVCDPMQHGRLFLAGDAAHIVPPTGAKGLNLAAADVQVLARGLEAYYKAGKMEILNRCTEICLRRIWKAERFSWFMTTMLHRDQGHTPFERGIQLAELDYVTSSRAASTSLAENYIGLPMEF
Pseudomonas putida KT2440 PobA (para-hydroxybenzoate-3-hydroxylase, PHBH), native, PP_3537, tagless, pobA_EC gene SEQ ID NO: 1, sequence (Q88H28 1-395): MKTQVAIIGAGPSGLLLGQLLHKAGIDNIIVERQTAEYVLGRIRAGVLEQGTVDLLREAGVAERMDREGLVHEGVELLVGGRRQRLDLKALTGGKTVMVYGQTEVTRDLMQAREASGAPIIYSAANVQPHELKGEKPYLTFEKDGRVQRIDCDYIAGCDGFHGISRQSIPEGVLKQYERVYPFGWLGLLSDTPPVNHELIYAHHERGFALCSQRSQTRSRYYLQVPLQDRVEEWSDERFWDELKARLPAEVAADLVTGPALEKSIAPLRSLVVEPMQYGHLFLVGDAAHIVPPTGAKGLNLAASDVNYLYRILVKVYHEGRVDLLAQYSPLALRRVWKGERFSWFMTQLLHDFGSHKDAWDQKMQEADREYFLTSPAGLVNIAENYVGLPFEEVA

SMILES: O=C(O)c1ccc(O)cc1 [4-hydroxybenzoate]
- Km ([1]; read-out: KM (4-hydroxybenzoate), pH 8): 16 ± 1 µM

SMILES: NC(=O)C1=CN([C@@H]2O[C@H](COP(=O)(O)OP(=O)(O)OC[C@H]3O[C@@H](n4cnc5c(N)ncnc54)[C@H](O)[C@@H]3O)[C@@H](O)[C@H]2O)C=CC1 [NADH]
- utilization as reducing equivalent ([2]; O2 consumption in mixture containing PobA and 4HB): unreactive
- kcat (NAD(P)H) ([1]; NADH varied, NADH detection (340 nm)): 25 ± 2 s⁻¹
- kcat (NAD(P)H) ([1]; NADH varied, O2 detection (oxygraph)): 22 ± 2 s⁻¹
- substrate specificity for NADH (slightly lowered) ([1]; NADH, relative to NADPH): about 60%

SMILES: NC(=O)C1=CN([C@@H]2O[C@H](COP(=O)(O)OP(=O)(O)OC[C@H]3O[C@@H](n4cnc5c(N)ncnc54)[C@H](OP(=O)(O)O)[C@@H]3O)[C@@H](O)[C@H]2O)C=CC1 [NADPH]
- kcat (NAD(P)H) ([2]; NADPH detection (340 nm)): 50 ± 5 s⁻¹
- kcat (NAD(P)H) ([2]; O2 detection (oxygraph)): 47 ± 4 s⁻¹
- kcat (NAD(P)H) ([1]; NADPH varied, NADPH detection (340 nm)): 27 ± 2 s⁻¹
- kcat (NAD(P)H) ([1]; NADPH varied, O2 detection (oxygraph)): 23 ± 2 s⁻¹
- difference in substrate specificity towards NADPH, PobA and PraI ([1]; average, PraI compared with PobA, different combination of the reactants): ≤ two-fold
- Km ([3]; read-out: KM^NADPH): 23 µM
- Km [4]: 50 µM

SMILES: O=O [O2, molecular oxygen]
- kcat (O2) ([2]; pH 8): 53 ± 5 s⁻¹
- Km ([2]; pH 8, read-out: KM (O2)): 70 ± 5 µM
- kcat (O2) ([1]; pH 8): 25 ± 2 s⁻¹ and 22 ± 2 s⁻¹
- Km ([1]; pH 8, read-out: KM (O2)): 68 µM and 54 µM
- Km ([3]; read-out: KM^oxygen): 37 µM
